Data: US9249125B2, “Pyrazole derivatives as p38 MAP inhibitors” (RESPIVERT LIMITED, priority 2012, dated 2016)

Legend:
Syk = Syk (Homo sapiens (Human), UniProt P43405); test: Syk enzyme inhibition (FRET, Z-LYTE); format: biochemical
Summary of the method: (§1)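 Z-LYTE FRET kinase assay: enzyme (3000 or 2000 ng/mL stock, respectively) preincubated 2 h at RT with compound (4–0.004 μg/mL stocks), then FRET peptide plus ATP (800 μM stock for c-Src, 60 μM for Syk) added for 1 h. Protease development 1 h; phosphorylation from coumarin/fluorescein emission ratio.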

[1] = test system: Poly I:C-induced ICAM-1 expression in BEAS2B cells; test: Poly I:C-induced ICAM-1 expression in BEAS2B cells; format: cell-based; conditions: Homo sapiens, BEAS-2B, read-out: Poly IC induced ICAM1 in BEAS2B IC50
Summary of the method: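 Cell-based ELISA read at 450 nm minus 655 nm, divided by crystal violet OD595 to normalize for cell number, gave ICAM-1 levels. Readout was taken 18 hr after poly I:C (1 μg/mL, Oligofectamine) transfection of human bronchial BEAS2B cells pretreated 2 hr with test compound.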

d-U937 cells = test: Cell viability: MTT assay; format: cell-based, human; conditions: 1 μg/mL
Summary of the method: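 MTT read-out (1 h, absorbance 550 nm) on d-U937 cells after pre-incubation with 1 or 10 μg/mL compound under two regimes: 4 h, 5% FCS, or 24 h, 10% FCS RPMI1640. Values are percent loss of viability relative to vehicle (0.5% DMSO), so increases are reported as negative.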

[2] = test system: LPS-induced IL-8 release in d-U937 cells; test: LPS-induced IL-8 release in d-U937 cells; format: cell-based; conditions: Homo sapiens, dU937, read-out: LPS Induced Release of Cytokine in d-937 Cells IL-8 IC50
Summary of the method: (§2)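 Sandwich ELISA of culture supernatant gives TNFα and IL-8 levels after a 4 hr challenge with LPS (0.1 μg/mL, E. coli O111:B4). Before stimulation, macrophage-like U937 cells, obtained by 48–72 hr in PMA at 100 ng/mL, sit with compound for 2 hr. Relative EC50 is derived from concentration-response data.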

HRV16 = HRV16 induced CPE in MRC5 cells; format: cell-based, human rhinovirus; conditions: MRC5 cells; screened at concentrations up to 0.32 ng/mL
Procedure: The supernatants are aspirated, and then fresh media added followed by incubation for 4 days. Where appropriate, cells are pre-incubated with compound or DMSO for 2 hr, and the compounds and DMSO added again after washout of the virus.
Supernatants are aspirated and incubated with methylene blue solution (100 μL, 2% formaldehyde, 10% methanol and 0.175% Methylene Blue) for 2 hr at RT. […] The percentage inhibition for each well is calculated. The IC50 value is calculated from the concentration-response curve generated by the serial dilutions of the test compounds.

cSrc = cSrc (Homo sapiens (Human), UniProt P12931); test: c-Src enzyme inhibition (FRET, Z-LYTE); format: biochemical
Summary of the method: as §1

[3] = test system: LPS-induced TNFα release in d-U937 cells; test: LPS-induced TNFα release in d-U937 cells; format: cell-based; conditions: Homo sapiens, dU937, relative to 10 μg/mL BIRB796, read-out: LPS Induced Release of Cytokine in d-937 Cells TNFα REC50
Summary of the method: as §2

GSK3α = GSK3α (Homo sapiens (Human), UniProt P49840); test: GSK 3α enzyme inhibition (FRET, Z-LYTE); format: biochemical
Summary of the method: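 Phosphorylation was read as the donor (coumarin) to acceptor (fluorescein) ratio after a 1 hr protease step destroying non-phosphorylated peptide. Before this, compound (4–0.004 μg/mL stocks) sat 2 hr at RT with GSK3α (500 ng/mL stock), followed by 1 hr kinase reaction with 8 μM peptide and 40 μM ATP stocks.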

p38 MAPKα = p38 MAPKα (Homo sapiens (Human), UniProt Q16539); test: p38 MAPKα enzyme inhibition (FRET, Z-LYTE); format: biochemical
[4] = test system: LPS-induced airways neutrophilia in mice; test: LPS-induced neutrophil accumulation in mice; format: in vivo; conditions: Test Substance at 0.2 mg/mL, intra tracheal, dosed 8 hr pre-LPS challenge
Procedure: Non-fasted Balb/c mice are dosed by the intra tracheal route with either vehicle, or the test substance at the indicated times (within the range 2-8 hr) before stimulation of the inflammatory response by application of an LPS challenge. At T=0, mice are placed into an exposure chamber and exposed to LPS (7.0 mL, 0.5 mg/mL solution in PBS) for 30 min). After a further 8 hr the animals are anesthetized, their tracheas cannulated and BALF extracted by infusing and then withdrawing from their lungs 1.0 mL of PBS via the tracheal catheter. Total and differential white cell counts in the BALF samples are measured using a Neubaur haemocytometer. Cytospin smears of the BALF samples are prepared by centrifugation at 200 rpm for 5 min at RT and stained using a DiffQuik stain system (Dade Behring). Cells are counted using oil immersion microscopy. Data for neutrophil numbers in BAL are shown as mean±S.E.M. (standard error of the mean). The percentage inhibition of neutrophil accumulation is calculated for each treatment relative to vehicle treatment.

Sequence of p38 MAPKα (Q16539 whole entry): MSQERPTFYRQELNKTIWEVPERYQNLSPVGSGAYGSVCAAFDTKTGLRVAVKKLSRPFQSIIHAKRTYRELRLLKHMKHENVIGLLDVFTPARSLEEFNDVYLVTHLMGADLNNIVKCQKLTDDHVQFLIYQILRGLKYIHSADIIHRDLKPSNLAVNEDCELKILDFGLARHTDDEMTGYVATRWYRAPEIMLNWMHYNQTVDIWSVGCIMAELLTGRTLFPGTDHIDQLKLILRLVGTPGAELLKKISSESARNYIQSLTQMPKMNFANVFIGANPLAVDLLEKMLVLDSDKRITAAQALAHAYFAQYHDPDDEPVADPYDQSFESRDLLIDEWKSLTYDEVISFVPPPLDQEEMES
Sequence of GSK3α (P49840 whole entry): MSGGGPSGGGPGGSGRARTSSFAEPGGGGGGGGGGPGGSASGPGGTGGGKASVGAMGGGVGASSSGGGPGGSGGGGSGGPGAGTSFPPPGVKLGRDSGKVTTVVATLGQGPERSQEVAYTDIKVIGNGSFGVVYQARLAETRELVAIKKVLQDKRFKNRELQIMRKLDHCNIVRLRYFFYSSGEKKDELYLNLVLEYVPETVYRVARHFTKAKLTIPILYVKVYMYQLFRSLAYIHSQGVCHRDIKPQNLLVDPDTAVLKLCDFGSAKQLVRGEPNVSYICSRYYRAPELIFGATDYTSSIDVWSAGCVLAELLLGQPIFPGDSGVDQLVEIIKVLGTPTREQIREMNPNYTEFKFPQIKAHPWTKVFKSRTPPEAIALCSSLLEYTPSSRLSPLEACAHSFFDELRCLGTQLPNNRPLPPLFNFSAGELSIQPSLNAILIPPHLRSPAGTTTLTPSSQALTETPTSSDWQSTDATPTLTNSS
Sequence of cSrc (P12931 whole entry, looked up): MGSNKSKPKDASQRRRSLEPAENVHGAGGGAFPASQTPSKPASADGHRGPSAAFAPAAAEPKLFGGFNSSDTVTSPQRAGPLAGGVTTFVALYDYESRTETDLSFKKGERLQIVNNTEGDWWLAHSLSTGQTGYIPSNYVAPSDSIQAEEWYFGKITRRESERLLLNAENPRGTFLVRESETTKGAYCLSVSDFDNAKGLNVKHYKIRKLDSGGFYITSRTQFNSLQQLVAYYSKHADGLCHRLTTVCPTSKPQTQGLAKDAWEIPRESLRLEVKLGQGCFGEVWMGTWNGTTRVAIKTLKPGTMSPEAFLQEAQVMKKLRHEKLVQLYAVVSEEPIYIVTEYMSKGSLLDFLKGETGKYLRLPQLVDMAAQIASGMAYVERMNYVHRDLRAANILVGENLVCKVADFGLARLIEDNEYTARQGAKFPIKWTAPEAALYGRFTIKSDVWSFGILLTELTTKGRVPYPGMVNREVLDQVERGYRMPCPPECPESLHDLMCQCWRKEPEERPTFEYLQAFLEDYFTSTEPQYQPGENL

| SMILES | IC50 (Syk) | IC50 [1] | MTT Assay Cell viability at time point in d-U937 cells 4 h (d-U937 cells) | MTT Assay Cell viability at time point in d-U937 cells 24 h (d-U937 cells) | IC50 [2] | HRV induced CPE in MRC5 Cells % Inhibition Observed (HRV16) | IC50 (cSrc) | EC50 [3] | IC50 (GSK3α) | IC50 (p38 MAPKα) | % Inhibition of neutrophil accumulation in BAL [4] | Neutrophil numbers in BAL (+/−SEM) [4] |
| --- | --- | --- | --- | --- | --- | --- | --- | --- | --- | --- | --- | --- |
| Cc1ccc(-n2nc(C(C)(C)C)cc2NC(=O)Nc2ccc(Oc3ccnc(Nc4ccc5c(c4)NC(=O)C5)n3)c3ccccc23)cc1 [Example 2, 1-(3-(tert-Butyl)-1-(p-tolyl)-1H-pyrazol-5-yl)-3-(4-((2-((2-oxoindolin-6-yl)amino)pyrimidin-4-yl)oxy)naphthalen-1-yl)urea] | 18 nM | 1.4 nM | −ve (−ve and +ve indicate that the value is below and above respectively, the no significant effect threshold, defined as 30% inhibition at 1 μg/mL at the time point indicated.) | −ve (−ve and +ve indicate that the value is below and above respectively, the no significant effect threshold, defined as 30% inhibition at 1 μg/mL at the time point indicated.) | 1.7 nM | 89% | 4 nM | 1.4 nM | > 15600 nM | 93 nM | – | – |
| COc1ccc(-n2nc(C(C)(C)C)cc2NC(=O)Nc2ccc(Oc3ccnc(Nc4ccc5[nH]ncc5c4)n3)c3ccccc23)cn1 [Example 13, 1-(4-((2-((1H-Indazol-5-yl)amino)pyrimidin-4-yl)oxy)naphthalen-1-yl)-3-(3-(tert-butyl)-1-(6-methoxypyridin-3-yl)-1H-pyrazol-5-yl)urea] | 8 nM | 2.4 nM | −ve (−ve and +ve indicate that the value is below and above respectively, the no significant effect threshold, defined as 30% inhibition at 1 μg/mL at the time point indicated.) | −ve (−ve and +ve indicate that the value is below and above respectively, the no significant effect threshold, defined as 30% inhibition at 1 μg/mL at the time point indicated.) | 0.5 nM | – | 3 nM | 1.6 nM | > 1560 nM | 30 nM | 50% | 8.5 ± 1.4 ×10^5/mL |
| CC(C)(C)c1cc(NC(=O)Nc2ccc(Oc3ccnc(Nc4ccc5[nH]ncc5c4)n3)c3ccccc23)n(-c2ccc(=O)n(CCN3CCOCC3)c2)n1 [Example 88, 1-(4-((2-((1H-indazol-5-yl)amino)pyrimidin-4-yl)oxy)naphthalen-1-yl)-3-(3-(tert-butyl)-1-(1-(2-morpholinoethyl)-6-oxo-1,6-dihydropyridin-3-yl)-1H-pyrazol-5-yl)urea] | 10 nM | 35.9 nM | −ve (−ve and +ve indicate that the value is below and above respectively, the no significant effect threshold, defined as 30% inhibition at 1 μg/mL at the time point indicated.) | −ve (−ve and +ve indicate that the value is below and above respectively, the no significant effect threshold, defined as 30% inhibition at 1 μg/mL at the time point indicated.) | 153 nM | 75% | 3 nM | 18.8 nM | 2430 nM | 32 nM | – | – |
| COc1ccc(-n2nc(C(C)(C)C)cc2NC(=O)Nc2ccc(Oc3ccnc(Nc4cc(C)c5[nH]ncc5c4)n3)c3ccccc23)cc1 [Example 42, 1-(3-(tert-butyl)-1-(4-methoxyphenyl)-1H-pyrazol-5-yl)-3-(4-((2-((7-methyl-1H-indazol-5-yl)amino)pyrimidin-4-yl)oxy)naphthalen-1-yl)urea] | 5 nM | 1.4 nM | −ve (−ve and +ve indicate that the value is below and above respectively, the no significant effect threshold, defined as 30% inhibition at 1 μg/mL at the time point indicated.) | +ve (−ve and +ve indicate that the value is below and above respectively, the no significant effect threshold, defined as 30% inhibition at 1 μg/mL at the time point indicated.) | 1.4 nM | – | 5 nM | 1.7 nM | > 1530 nM | 67 nM | 50% | 8.5 ± 1.5 ×10^5/mL |
| CC(C)(C)c1cc(NC(=O)Nc2ccc(Oc3ccnc(Nc4ccc5[nH]nnc5c4)n3)c3ccccc23)n(-c2ccc(OCCN3CCOCC3)cc2)n1 [Example 81, 1-(4-((2-((1H-benzo[d][1,2,3]triazol-5-yl)amino)pyrimidin-4-yl)oxy)naphthalen-1-yl)-3-(3-(tert-butyl)-1-(4-(2-morpholinoethoxy)phenyl)-1H-pyrazol-5-yl)urea] | 14 nM | 10 nM | −ve (−ve and +ve indicate that the value is below and above respectively, the no significant effect threshold, defined as 30% inhibition at 1 μg/mL at the time point indicated.) | −ve (−ve and +ve indicate that the value is below and above respectively, the no significant effect threshold, defined as 30% inhibition at 1 μg/mL at the time point indicated.) | 1.6 nM | – | 5 nM | 1.4 nM | 641 nM | 66 nM | – | – |
| Cc1cc(Nc2nccc(Oc3ccc(NC(=O)Nc4cc(C(C)C)nn4-c4cccc(OCCN5CCOCC5)c4)c4ccccc34)n2)cc2cn[nH]c12 [Example 55, 1-(3-isopropyl-1-(3-(2-morpholinoethoxy)phenyl)-1H-pyrazol-5-yl)-3-(4-((2-((7-methyl-1H-indazol-5-yl)amino)pyrimidin-4-yl)oxy)naphthalen-1-yl)urea] | < 1 nM | 50.8 nM | −ve (−ve and +ve indicate that the value is below and above respectively, the no significant effect threshold, defined as 30% inhibition at 1 μg/mL at the time point indicated.) | −ve (−ve and +ve indicate that the value is below and above respectively, the no significant effect threshold, defined as 30% inhibition at 1 μg/mL at the time point indicated.) | 43.4 nM | – | < 1 nM | 3.9 nM | > 13500 nM | 7 nM | – | – |
| CC(C)c1cc(NC(=O)Nc2ccc(Oc3ccnc(Nc4ccc5c(c4)NC(=O)C5)n3)c3ccccc23)n(-c2ccc(OCCN3CCOCC3)cc2)n1 [Example 61, 1-(3-isopropyl-1-(4-(2-morpholinoethoxy)phenyl)-1H-pyrazol-5-yl)-3-(4-((2-((2-oxoindolin-6-yl)amino)pyrimidin-4-yl)oxy)naphthalen-1-yl)urea] | 7 nM | > 135 nM | −ve (−ve and +ve indicate that the value is below and above respectively, the no significant effect threshold, defined as 30% inhibition at 1 μg/mL at the time point indicated.) | −ve (−ve and +ve indicate that the value is below and above respectively, the no significant effect threshold, defined as 30% inhibition at 1 μg/mL at the time point indicated.) | 84.7 nM | – | < 1 nM | 18.7 nM | 1540 nM | 14 nM | – | – |
